Reference: publication PMC9097471, “Development of Selective Phosphatidylinositol 5-Phosphate 4-Kinase γ Inhibitors with a Non-ATP-competitive, Allosteric Binding Mode” (Journal of Medicinal Chemistry, 2022)

How the values were obtained:
PI5P4Kγ+ = biological target: T1, PI5P4Kγ+ (Homo sapiens, UniProt Q8TBX8, D138G/D197E/E133P/E135D/E153T/E196G/G136S/G139A/N195G/S132L/S134N); experiment: ADP-Glo inhibition assay; assay type: biochemical; details: ADP-Glo, new data; read-out: PI5P4Kγ+ IC50
T1 construct: GST (N, cleaved yes); made in house; host or cells: E. coli BL21(DE3), pGEX6P
T1 sequence (Q8TBX8 with tags, fused parts or gaps INS131LPN/S132D/E133S/S134Q/E135A/G136R/D138G/G139A/E153T/N195G/E196G/D197E): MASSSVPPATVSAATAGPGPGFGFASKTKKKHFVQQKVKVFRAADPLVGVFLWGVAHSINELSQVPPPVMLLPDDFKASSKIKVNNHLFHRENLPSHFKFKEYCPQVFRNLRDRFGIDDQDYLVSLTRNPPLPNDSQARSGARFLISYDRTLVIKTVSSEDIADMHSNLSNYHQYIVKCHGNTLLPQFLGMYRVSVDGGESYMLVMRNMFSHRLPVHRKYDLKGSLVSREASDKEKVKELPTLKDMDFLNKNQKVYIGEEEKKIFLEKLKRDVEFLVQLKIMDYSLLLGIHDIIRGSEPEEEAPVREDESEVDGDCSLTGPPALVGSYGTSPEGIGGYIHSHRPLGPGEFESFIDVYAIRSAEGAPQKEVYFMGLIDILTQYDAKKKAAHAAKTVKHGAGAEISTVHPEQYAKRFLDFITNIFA
Description: Recombinant mutant PI5P4Kγ+ was prepared essentially as described previously.[25] […] Cultures were induced with 0.4 mM IPTG and probe sonicated in the presence of protease inhibitors. The GST fusion protein of PI5P4Kγ+ was harvested by binding to glutathione sepharose beads (Cytiva) and cleaved in situ with 50U of PreScission protease (Cytiva) for 4 h at 4 °C. The cleaved protein was further purified by size-exclusion chromatography (AKTA Pure, Cytiva). The protein purity was confirmed by sodium dodecyl sulphate–polyacrylamide gel electrophoresis, and the concentration was determined by colorimetric assay (Bio-Rad).
(§1) Statistical analysis was performed using nonparametric testing in Prism 8 (GraphPad). Activity pIC50 values and in vivo binding pEC50 values were estimated using a 4-parameter fit (Dotmatics).

PI5P4Kγ-WT = biological target: T2, PI5P4Kγ-WT (Homo sapiens, UniProt Q8TBX8); experiment: InCell Pulse cellular target engagement (thermal stabilisation) in HEK293 cells; assay type: cell-based; details: InCell Pulse, new data
T2 sequence (Q8TBX8 1-421): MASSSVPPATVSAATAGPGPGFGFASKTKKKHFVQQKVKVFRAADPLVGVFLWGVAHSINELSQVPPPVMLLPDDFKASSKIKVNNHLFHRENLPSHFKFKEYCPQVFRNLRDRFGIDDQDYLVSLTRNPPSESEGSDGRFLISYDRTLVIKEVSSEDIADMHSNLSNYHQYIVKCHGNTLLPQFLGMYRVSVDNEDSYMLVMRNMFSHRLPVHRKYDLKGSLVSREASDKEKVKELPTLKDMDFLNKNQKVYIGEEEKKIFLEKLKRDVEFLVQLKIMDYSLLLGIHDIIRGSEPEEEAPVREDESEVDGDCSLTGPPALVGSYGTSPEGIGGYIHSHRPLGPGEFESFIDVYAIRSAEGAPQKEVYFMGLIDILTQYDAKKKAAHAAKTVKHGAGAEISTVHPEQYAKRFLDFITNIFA
Description: The binding of compounds to PI5P4Kγ in intact cells was assessed using an InCell Pulse thermal stabilisation assay (DiscoverX). […] The plate was then incubated for 60 min in the dark prior to luminescence reading using a Pherastar FSX plate reader (BMG Labtech).
as §1

PI5P4Kγ = tested on: PI5P4Kγ; parameters: method as in ref 30 (1), ref 23 (2); details: 32P-ATP/PI5P incorporation; ref 30 (1), ref 23 (2); cited from earlier work
PI5P4Kα = tested on: PI5P4Kα; parameters: method as in ref 23 (a number printed in a supplementary file, which may have a reference list of its own: not looked up in the article's list); details: KINOMEscan @ 10 μM; cited from earlier work
PI5P4Kβ = biological target: T3, PI5P4Kβ (Homo sapiens, UniProt P78356); parameters: method as in ref 23 (a number printed in a supplementary file, which may have a reference list of its own: not looked up in the article's list); details: KINOMEscan @ 10 μM; cited from earlier work
T3 sequence (P78356 1-416): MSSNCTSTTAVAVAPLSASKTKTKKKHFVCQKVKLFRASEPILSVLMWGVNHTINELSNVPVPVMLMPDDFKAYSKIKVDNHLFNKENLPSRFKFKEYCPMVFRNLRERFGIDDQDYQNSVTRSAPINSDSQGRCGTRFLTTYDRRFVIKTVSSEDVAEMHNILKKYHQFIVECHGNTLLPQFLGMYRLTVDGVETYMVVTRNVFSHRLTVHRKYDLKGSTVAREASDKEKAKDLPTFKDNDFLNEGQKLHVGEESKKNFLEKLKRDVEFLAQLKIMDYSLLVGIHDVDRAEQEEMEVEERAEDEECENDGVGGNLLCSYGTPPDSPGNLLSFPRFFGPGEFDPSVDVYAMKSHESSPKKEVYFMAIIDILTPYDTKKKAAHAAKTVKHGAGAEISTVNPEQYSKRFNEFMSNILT

PI5P4Kα-WT = biological target: T4, PI5P4Kα-WT (Homo sapiens, UniProt P48426); experiment: ADP-Glo inhibition assay
T4 sequence (P48426 1-406): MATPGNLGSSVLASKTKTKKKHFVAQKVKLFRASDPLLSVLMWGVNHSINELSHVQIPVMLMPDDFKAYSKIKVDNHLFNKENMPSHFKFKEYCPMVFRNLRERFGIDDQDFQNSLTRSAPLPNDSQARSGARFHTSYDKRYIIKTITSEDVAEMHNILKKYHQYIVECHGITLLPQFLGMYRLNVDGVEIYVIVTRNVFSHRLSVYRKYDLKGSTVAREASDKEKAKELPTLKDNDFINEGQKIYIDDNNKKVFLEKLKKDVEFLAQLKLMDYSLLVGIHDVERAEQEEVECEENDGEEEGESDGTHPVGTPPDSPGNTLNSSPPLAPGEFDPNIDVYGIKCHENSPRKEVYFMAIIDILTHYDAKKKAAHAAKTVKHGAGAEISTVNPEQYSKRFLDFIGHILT
Description: (§2) To enable direct comparisons, Promega’s ADP-Glo reporter assay was developed using a mutant form of the kinase. […] To mitigate concerns about being misled by the use of the PI5P4Kγ+ construct and the possible introduction of PI5P4Kα activity into the molecules, our screening cascade included the measurement of ADP-Glo activity at PI5P4Kα-WT (and PI5P4Kβ-WT to fully understand emerging selectivity profiles).

PI5P4Kβ-WT = biological target: T5, PI5P4Kβ-WT (Homo sapiens, UniProt P78356); experiment: ADP-Glo inhibition assay
T5 sequence (P78356 1-416): T3 sequence (P78356 1-416)
Description: as §2

## Cn1nnnc1Sc1ncnc2scc(-c3cccc(S(C)(=O)=O)c3)c12 [Compound 2, NCT-504]
PI5P4Kγ+
  IC50: > 50 µM
PI5P4Kγ-WT
  IC50: > 50 µM
PI5P4Kγ
  IC50: 16 µM
PI5P4Kα
  PI5P4Kα % inh: <35% inh @ 10 uM (KINONMEscan)
PI5P4Kβ
  PI5P4Kβ % inh: <65% inh @ 10 uM (KINONMEscan)
PI5P4Kα-WT
  IC50: 2 µM
PI5P4Kβ-WT
  IC50: > 25 µM
